Like-named read-outs stand apart in the source and are kept apart here.

The target of one test is T1, DNMT2 (Homo sapiens, UniProt O14717).
T1 construct: made in house; host or cells: E. coli Rosetta2
T1 sequence (O14717 1-391): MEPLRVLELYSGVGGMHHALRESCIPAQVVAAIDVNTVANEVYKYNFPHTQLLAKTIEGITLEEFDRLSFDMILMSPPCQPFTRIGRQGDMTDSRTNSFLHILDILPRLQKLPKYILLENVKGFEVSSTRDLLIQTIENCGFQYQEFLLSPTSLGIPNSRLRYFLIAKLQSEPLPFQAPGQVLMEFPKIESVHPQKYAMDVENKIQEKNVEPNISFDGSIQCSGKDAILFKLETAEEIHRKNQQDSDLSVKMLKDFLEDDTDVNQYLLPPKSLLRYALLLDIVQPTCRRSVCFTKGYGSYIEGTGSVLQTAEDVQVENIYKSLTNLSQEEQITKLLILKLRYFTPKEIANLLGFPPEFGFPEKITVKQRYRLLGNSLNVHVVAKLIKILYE
Nature of the test: Microscale thermophoresis (MST) binding assay, DNMT2. The following applies: for MST pre-screening: DNMT2, ligand concentration 33, 100, 300 µM. The protocol: (§1) Since the constructs of DNMT2 and NSUN6 contain hexa-histidine tags, proteins were labeled using a Monolith His-Tag Labeling Kit RED-Tris-NTA 2nd generation according to the manufacturer’s instructions. This labeling strategy was chosen since it should prevent any interference with the actual binding site of the proteins. Labeled protein was diluted to a concentration of 20 nM into MST buffer (50 mM Hepes, pH 7.5, 150 mM NaCl, 10 mM MgCl2, 1 mM DTT, 0.05% polysorbate-20, 0.1% PEG-8000). All compounds were prepared as stocks dissolved in DMSO to a concentration of 50 mM. […] All measurements were performed on a Monolith Pico instrument (NanoTemper Technologies, Muenchen, Germany) with red light. To induce thermophoresis, medium MST power was selected for DNMT2 and high MST power for NSUN6. All experiments were performed in quadruplicates. […] Obtained dilutions were then mixed 1:1 with labeled protein (20 nM) and incubated for 5 min at room temperature prior to measurement. Experiments were performed in duplicates. All data received were analyzed using the MO. Affinity Analysis software version 2.3 (NanoTemper Technologies, Muenchen, Germany).
A general note: MST reads how a fluorescent partner responds to local heating, with and without ligand.

The target of the next test is T2, NSUN6 (Homo sapiens, UniProt Q8TEA1).
T2 construct: host or cells: E. coli Rosetta2
T2 sequence (Q8TEA1 1-469): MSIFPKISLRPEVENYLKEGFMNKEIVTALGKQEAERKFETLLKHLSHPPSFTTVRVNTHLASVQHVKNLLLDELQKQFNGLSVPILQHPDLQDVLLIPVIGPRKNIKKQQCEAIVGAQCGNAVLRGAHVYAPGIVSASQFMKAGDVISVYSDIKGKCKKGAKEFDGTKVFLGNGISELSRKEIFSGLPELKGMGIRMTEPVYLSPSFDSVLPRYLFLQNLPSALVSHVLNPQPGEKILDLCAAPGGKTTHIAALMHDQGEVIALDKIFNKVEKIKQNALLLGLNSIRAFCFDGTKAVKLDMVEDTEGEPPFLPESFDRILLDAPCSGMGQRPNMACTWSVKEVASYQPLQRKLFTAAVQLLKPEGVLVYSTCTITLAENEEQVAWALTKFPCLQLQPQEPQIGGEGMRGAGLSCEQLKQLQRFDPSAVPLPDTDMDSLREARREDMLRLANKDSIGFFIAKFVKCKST
Nature of the test: Microscale thermophoresis (MST) binding assay, NSUN6. The following applies: for Kd: MST dose-response curve; for MST pre-screening: ligand concentration 33, 100, 300 µM. The protocol:
as §1

The mark [1] stands for this setting: NSUN6, ≥ = lower limit, upper plateau not completely reached, read-out: KD,app.

For `C[C@@H](NC(=O)Nc1ccc(C(N)=O)c(F)c1)c1cccc(N2CCOC2=O)c1` [Compound 1.9], on DNMT2, the MST pre-screening result is “no concentration-dependent MST-shift (no binding)”.

For the compound `Nc1ncnc2cc(C(=O)NCC(=O)Nc3ccc4c(c3)OCCO4)ccc12` [Compound 1.14], the Kd at NSUN6 (setting [1]) was not below 116 µM.

As for `COc1ccc(C(=O)Nc2cccc(CN[C@H](CN)CO)c2)cc1` [Compound 2.8], the “MST result DNMT2 ('off-target'/selectivity)” value at DNMT2 (no MST shift at ligand concentration of up to 300 µM) was “[drawing 33] No binding”. The “selectivity for NSUN6 over DNMT2” value on DNMT2 (selective = no MST shift for the other enzyme up to 300 µM) is reported as “selectivity”. The Kd at NSUN6 (setting [1]) stood at 42 µM. Moreover, the MST pre-screening result at NSUN6 (NSUN6) was “concentration-dependent MST-shift (binding)”. Consider `O=C(NCCN/C(O)=C1\N=CC=CC1=O)Nc1cccc2c1CNC2=O` [Compound 1.4], for which the Kd on NSUN6 (setting [1]) came out at 12 µM. Consider `CN1CCN(CC[C@@H](N)C(=O)Nc2ccc(-n3ccc(O)n3)c(F)c2)CC1` (racemic) [Compound 2.1], for which the Kd on NSUN6 (setting [1]) was not below 369 µM. Besides, at NSUN6 (NSUN6), the MST pre-screening entry is “concentration-dependent MST-shift (binding)”. As for `O=C([C@@H]1NC[C@@H](O)[C@H]1O)N1CCN([C@@H]2CCN(c3ccccc3)C2=O)CC1` [Compound 2.11], the MST pre-screening entry on NSUN6 (NSUN6) was “no concentration-dependent MST-shift (no binding)”.

As to `Nc1ncnc2c1ncn2[C@@H]1O[C@H](CSCC[C@H](N)C(=O)O)[C@@H](O)[C@H]1O` [SAH, S-adenosyl-L-homocysteine, reference compound], the Kd on DNMT2 (MST dose-response curve, DNMT2, reference ligand) is 11.8 µM; at NSUN6 (NSUN6, reference ligand, read-out: KD), 9.1 µM.

As for `Cc1ccc(F)c(-n2cc(O)c(C(=O)NNc3cc(O)nc4ncccc34)n2)c1` [Compound 1.16], the MST pre-screening entry at DNMT2 is on record as “no concentration-dependent MST-shift (no binding)”. For the compound `O=C(NCc1cccc2ncccc12)Nc1ccc(C[C@H]2NC(=O)NC2=O)cc1` [Compound 1.12], on DNMT2, the MST pre-screening entry was “no concentration-dependent MST-shift (no binding)”. Take `Cc1n[nH]c(C)c1NC(=O)CN1CCN(C(=O)c2ccc(C(N)=O)s2)CC1` [Compound 1.2]: at DNMT2, the MST pre-screening entry is “no concentration-dependent MST-shift (no binding)”. For `CN1CCC[C@@H]1CCC(=O)Nc1c[nH]nc1C(=O)NCC(N)=O` [Compound 2.6], the MST pre-screening result at NSUN6 (NSUN6) is given as “no concentration-dependent MST-shift (no binding)”.

For `CNC(=O)c1cccc(CN[C@H]2CCCN(C(=O)c3coc(C(N)=O)c3)C2)c1` [Compound 1.3], the MST pre-screening entry on DNMT2 was “no concentration-dependent MST-shift (no binding)”. Regarding `Cn1cnc([C@@H]2CNC[C@H]2C(=O)N2CCC[C@@H](CNC(=O)[C@H]3CCCN3)C2)c1` (racemic) [Compound 2.4], the Kd on NSUN6 (setting [1]) came out at 16.4 µM. On NSUN6 (NSUN6), the MST pre-screening result is listed as “concentration-dependent MST-shift (binding)”. Consider `CNC(=O)c1cccc(CN2CCC[C@H](NC(=O)c3coc(C(N)=O)c3)C2)c1` [Compound 1.5], for which the MST pre-screening result on DNMT2 is “no concentration-dependent MST-shift (no binding)”. With `N[C@H](CCS(N)(=O)=O)C(=O)Nc1ccc(C2CCNCC2)cc1` [Compound 2.3], at NSUN6 (NSUN6), the MST pre-screening entry is given as “no concentration-dependent MST-shift (no binding)”.

The values are drawn from PMC10094593, “Chemical Space Virtual Screening against Hard-to-Drug RNA Methyltransferases DNMT2 and NSUN6” (International Journal of Molecular Sciences, 2023).
